Tests used:
CVB3 3C^pro [1] = target: T1, CVB3 3C^pro (Coxsackievirus B3, UniProt P03313); experiment: Cell-based protease assay
EV71 3C^pro = EV71 3C^pro (Human enterovirus 71, UniProt Q66478); assay type: cell-based
HRV14 3C^pro = HRV14 3C^pro (Human rhinovirus 14, UniProt P03303); assay type: cell-based
PV 3C^pro = PV 3C^pro (Poliovirus type 1, UniProt P03300); assay type: cell-based
CVB3 3C^pro [2] = target: T1, CVB3 3C^pro; experiment: Western blot of fusion protein cleavage in COS-1 cells; assay type: cell-based; settings: 50 μM, pBind-3Cpro(CVB3)-VP16
FMDV 3C^pro = FMDV 3C^pro (Foot-and-mouth disease virus serotype O, UniProt P03305); experiment: cell-based; assay type: cell-based
CVB3 3C^pro [3] = target: T1, CVB3 3C^pro; experiment: Cell-based protease assay with EGFP read-out; settings: 50 μM, COS-1 cells, imaged after 2 days
HAV 3C^pro = target: T2, HAV 3C^pro (Human hepatitis A virus genotype IB, UniProt P08617); assay type: cell-based
T2 sequence (P08617 1520-1738 limits assumed): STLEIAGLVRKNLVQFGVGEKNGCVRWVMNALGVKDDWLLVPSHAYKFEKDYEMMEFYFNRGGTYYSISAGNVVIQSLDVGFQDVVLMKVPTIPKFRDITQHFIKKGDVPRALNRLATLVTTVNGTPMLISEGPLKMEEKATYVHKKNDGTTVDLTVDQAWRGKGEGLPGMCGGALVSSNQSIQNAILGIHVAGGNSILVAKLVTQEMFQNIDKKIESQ

SAFV = experiment: Growth curves of SAFV; assay type: cell-based; settings: 50 μM
SAFV 3C^pro = target: T3, SAFV 3C^pro (Saffold virus, UniProt C0MHL9); assay type: cell-based
T3 sequence (C0MHL9 1618-1834 limits assumed): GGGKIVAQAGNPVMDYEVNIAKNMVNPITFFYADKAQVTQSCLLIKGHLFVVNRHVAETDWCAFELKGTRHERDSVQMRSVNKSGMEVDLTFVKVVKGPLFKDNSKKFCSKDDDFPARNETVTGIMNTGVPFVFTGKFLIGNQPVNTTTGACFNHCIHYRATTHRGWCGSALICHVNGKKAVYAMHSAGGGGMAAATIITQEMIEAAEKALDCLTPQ

HPeV 3C^pro = target: T4, HPeV 3C^pro (Human parechovirus 1, UniProt Q66578); assay type: cell-based
T4 sequence (Q66578 1518-1711 limits assumed): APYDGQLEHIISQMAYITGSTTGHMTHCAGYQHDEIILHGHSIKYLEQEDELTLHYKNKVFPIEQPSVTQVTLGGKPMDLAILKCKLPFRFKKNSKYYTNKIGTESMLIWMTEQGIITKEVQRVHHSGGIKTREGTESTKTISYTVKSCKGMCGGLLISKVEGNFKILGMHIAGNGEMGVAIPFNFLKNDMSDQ

HAV strain HM175 = settings: ref Debing et al., 2013; cited from earlier work
EMCV 3C^pro = target: T5, EMCV 3C^pro (Encephalomyocarditis virus, UniProt P03304); assay type: cell-based
T5 sequence (P03304 1626-1830 limits assumed): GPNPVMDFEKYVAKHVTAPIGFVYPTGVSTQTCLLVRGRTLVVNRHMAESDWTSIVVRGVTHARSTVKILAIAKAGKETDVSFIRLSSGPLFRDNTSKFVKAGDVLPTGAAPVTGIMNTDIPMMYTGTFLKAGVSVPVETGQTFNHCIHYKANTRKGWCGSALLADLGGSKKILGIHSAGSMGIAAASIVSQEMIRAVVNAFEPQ

EMCV = experiment: Growth curves of EMCV; assay type: cell-based; settings: 50 μM

Q: With CCOC(=O)/C=C/[C@H](C[C@@H]1CCNC1=O)NC(=O)[C@@H](CC(=O)[C@@H](NC(=O)c1cc(C)on1)C(C)C)Cc1ccc(F)cc1 [AG7088] as the molecule, how does the EC50 (CVB3 3C^pro [1]) read?
A: The EC50 was 1.1 µM.

Q: And the “FLuc expression upon treatment, CVB3 3Cpro construct” value (CVB3 3C^pro [1]; 50 μM, COS-1 cells)?
A: The value was “induced”.

Q: And the “increase in FLuc levels compared to untreated” value (CVB3 3C^pro [1]; 50 μM, COS-1 cells, CVB3 3Cpro construct)?
A: Its value is roughly 40 fold.

Q: And the “FLuc expression upon treatment, EV71 3Cpro construct” value (EV71 3C^pro)?
A: Its value is “induced”.

Q: And the “FLuc expression upon treatment, HRV14 3Cpro construct” value (HRV14 3C^pro)?
A: The value was “induced”.

Q: And the “FLuc expression upon treatment, PV 3Cpro construct” value (PV 3C^pro)?
A: Its value is “induced”.

Q: What about the “cleavage of fusion protein (Western blot)” value (CVB3 3C^pro [2]) of the same molecule?
A: Its value is “not completely blocked”.

Q: What about the “FLuc expression upon treatment, FMDV 3Cpro construct” value (FMDV 3C^pro) of the same molecule?
A: The value was “increased”.

Q: And the “GFP signal from pG5EGFP reporter” value (CVB3 3C^pro [3])?
A: Its value is “GFP was visible”.

Q: What about the “effect on reporter activity, HAV 3Cpro construct” value (HAV 3C^pro) of the same molecule?
A: Its value is “no effect”.

Q: And the “activity against SAFV in growth curves” value (SAFV)?
A: The value was “no significant activity”.

Q: What about the “effect on reporter activity, SAFV 3Cpro construct” value (SAFV 3C^pro) of the same molecule?
A: Its value is “no effect”.

Q: What about the “effect on reporter activity, HPeV 3Cpro construct” value (HPeV 3C^pro) of the same molecule?
A: Its value is “no effect”.

Q: And the “effect on HAV replication, strain HM175” value (HAV strain HM175)?
A: The value was “no effect”.

Q: And the “effect on reporter activity, EMCV 3Cpro construct” value (EMCV 3C^pro)?
A: Its value is “no effect”.

Q: What about the “activity against EMCV in growth curves” value (EMCV) of the same molecule?
A: Its value is “no significant activity”.

Q: With C#CC[C@@H](C(=O)N[C@H](/C=C/C(=O)OCC)C[C@@H]1CCNC1=O)n1cccc(NC(=O)c2cc(C)on2)c1=O [AG7404] as the molecule, how does the EC50 (CVB3 3C^pro [1]) read?
A: The EC50 was 3.6 µM.

Q: And the EC50 (FMDV 3C^pro)?
A: The EC50 was greater than 100 µM.

Q: What about the “inhibitory activity towards FMDV 3Cpro” value (FMDV 3C^pro) of the same molecule?
A: The value was “little or no inhibitory activity”.

Source: article PMC7113757 (Antiviral Research, 2014)
